# Measured values published in the NIST ThermoML archive (doi:10.1016/j.fluid.2009.08.017).
# ± gives the expanded uncertainty stated by the source.
# Assay: activity coefficient (dimensionless); of the first substance listed, at infinite dilution; xn = mol fraction of the nth substance listed
# Conditions: 101 kPa, Liquid, Chromatography, x1 = 0
Compound,activity coefficient (318.15 K),activity coefficient (328.15 K),activity coefficient (338.15 K),activity coefficient (348.15 K),activity coefficient (358.15 K),activity coefficient (368.15 K),activity coefficient (298.15 K),activity coefficient (308.15 K)
"Cc1ccccc1C [1,2-dimethylbenzene] + CCCCCCOCn1cc[n+](C)c1.O=S(=O)([N-]S(=O)(=O)C(F)(F)F)C(F)(F)F",1.33 ± 0.086,1.34 ± 0.087,1.35 ± 0.087,1.35 ± 0.088,1.36 ± 0.088,1.36 ± 0.089,,
"Cc1ccccc1C [1,2-dimethylbenzene] + CCCCCCOCn1cc[n+](COCCCCCC)c1.O=S(=O)([N-]S(=O)(=O)C(F)(F)F)C(F)(F)F",0.89 ± 0.057,0.891 ± 0.057,0.892 ± 0.057,0.894 ± 0.057,0.895 ± 0.057,0.896 ± 0.057,,
"Cc1cccc(C)c1 [1,3-dimethylbenzene] + CCCCCCOCn1cc[n+](C)c1.O=S(=O)([N-]S(=O)(=O)C(F)(F)F)C(F)(F)F",1.45 ± 0.095,1.46 ± 0.096,1.47 ± 0.096,1.48 ± 0.097,1.48 ± 0.098,1.49 ± 0.098,,
"Cc1cccc(C)c1 [1,3-dimethylbenzene] + CCCCCCOCn1cc[n+](COCCCCCC)c1.O=S(=O)([N-]S(=O)(=O)C(F)(F)F)C(F)(F)F",0.944 ± 0.06,0.946 ± 0.06,0.948 ± 0.06,0.951 ± 0.06,0.953 ± 0.06,0.955 ± 0.06,,
"Cc1ccc(C)cc1 [1,4-dimethylbenzene] + CCCCCCOCn1cc[n+](C)c1.O=S(=O)([N-]S(=O)(=O)C(F)(F)F)C(F)(F)F",1.46 ± 0.096,1.47 ± 0.097,1.48 ± 0.097,1.49 ± 0.098,1.5 ± 0.098,1.5 ± 0.099,,
"Cc1ccc(C)cc1 [1,4-dimethylbenzene] + CCCCCCOCn1cc[n+](COCCCCCC)c1.O=S(=O)([N-]S(=O)(=O)C(F)(F)F)C(F)(F)F",0.949 ± 0.06,0.952 ± 0.06,0.955 ± 0.06,0.958 ± 0.06,0.96 ± 0.06,0.962 ± 0.06,,
C=CCCCCC [1-heptene] + CCCCCCOCn1cc[n+](C)c1.O=S(=O)([N-]S(=O)(=O)C(F)(F)F)C(F)(F)F,5.79 ± 0.39,5.61 ± 0.38,5.44 ± 0.37,5.3 ± 0.36,5.18 ± 0.35,5.05 ± 0.34,6.16 ± 0.42,5.96 ± 0.41
C=CCCCCC [1-heptene] + CCCCCCOCn1cc[n+](COCCCCCC)c1.O=S(=O)([N-]S(=O)(=O)C(F)(F)F)C(F)(F)F,2.59 ± 0.18,2.54 ± 0.17,2.49 ± 0.17,2.45 ± 0.17,2.41 ± 0.16,2.37 ± 0.16,2.7 ± 0.18,2.64 ± 0.18
C#CCCCCC [1-heptyne] + CCCCCCOCn1cc[n+](C)c1.O=S(=O)([N-]S(=O)(=O)C(F)(F)F)C(F)(F)F,2.45 ± 0.17,2.46 ± 0.17,2.47 ± 0.17,2.48 ± 0.17,2.48 ± 0.17,2.49 ± 0.17,2.44 ± 0.17,2.45 ± 0.17
C#CCCCCC [1-heptyne] + CCCCCCOCn1cc[n+](COCCCCCC)c1.O=S(=O)([N-]S(=O)(=O)C(F)(F)F)C(F)(F)F,1.39 ± 0.09,1.39 ± 0.091,1.4 ± 0.091,1.4 ± 0.092,1.41 ± 0.092,1.42 ± 0.093,1.37 ± 0.089,1.38 ± 0.09
C#CCCCC [1-hexyne] + CCCCCCOCn1cc[n+](C)c1.O=S(=O)([N-]S(=O)(=O)C(F)(F)F)C(F)(F)F,1.95 ± 0.13,1.96 ± 0.13,1.97 ± 0.13,1.98 ± 0.13,1.98 ± 0.13,1.99 ± 0.14,1.93 ± 0.13,1.94 ± 0.13
C#CCCCC [1-hexyne] + CCCCCCOCn1cc[n+](COCCCCCC)c1.O=S(=O)([N-]S(=O)(=O)C(F)(F)F)C(F)(F)F,1.17 ± 0.075,1.18 ± 0.075,1.18 ± 0.076,1.19 ± 0.076,1.19 ± 0.076,1.19 ± 0.076,1.16 ± 0.074,1.17 ± 0.075
C#CCCCCCC [1-octyne] + CCCCCCOCn1cc[n+](C)c1.O=S(=O)([N-]S(=O)(=O)C(F)(F)F)C(F)(F)F,3.13 ± 0.21,3.13 ± 0.21,3.12 ± 0.21,3.11 ± 0.21,3.11 ± 0.21,3.1 ± 0.21,3.15 ± 0.21,3.14 ± 0.21
C#CCCCCCC [1-octyne] + CCCCCCOCn1cc[n+](COCCCCCC)c1.O=S(=O)([N-]S(=O)(=O)C(F)(F)F)C(F)(F)F,1.66 ± 0.11,1.66 ± 0.11,1.67 ± 0.11,1.67 ± 0.11,1.67 ± 0.11,1.67 ± 0.11,1.65 ± 0.11,1.66 ± 0.11
C=CCCC [1-pentene] + CCCCCCOCn1cc[n+](C)c1.O=S(=O)([N-]S(=O)(=O)C(F)(F)F)C(F)(F)F,3.77 ± 0.26,3.69 ± 0.25,3.61 ± 0.25,3.53 ± 0.24,3.47 ± 0.24,3.41 ± 0.23,3.96 ± 0.27,3.86 ± 0.26
C=CCCC [1-pentene] + CCCCCCOCn1cc[n+](COCCCCCC)c1.O=S(=O)([N-]S(=O)(=O)C(F)(F)F)C(F)(F)F,1.83 ± 0.12,1.8 ± 0.12,1.77 ± 0.12,1.75 ± 0.12,1.72 ± 0.12,1.7 ± 0.11,1.9 ± 0.13,1.87 ± 0.13
C#CCCC [1-pentyne] + CCCCCCOCn1cc[n+](C)c1.O=S(=O)([N-]S(=O)(=O)C(F)(F)F)C(F)(F)F,1.57 ± 0.1,1.58 ± 0.1,1.59 ± 0.11,1.59 ± 0.11,1.6 ± 0.11,1.61 ± 0.11,1.54 ± 0.1,1.56 ± 0.1
C#CCCC [1-pentyne] + CCCCCCOCn1cc[n+](COCCCCCC)c1.O=S(=O)([N-]S(=O)(=O)C(F)(F)F)C(F)(F)F,1 ± 0.063,1.01 ± 0.063,1.01 ± 0.063,1.02 ± 0.064,1.02 ± 0.064,1.02 ± 0.064,0.992 ± 0.062,0.997 ± 0.062
COC(C)(C)C [2-methoxy-2-methylpropane] + CCCCCCOCn1cc[n+](C)c1.O=S(=O)([N-]S(=O)(=O)C(F)(F)F)C(F)(F)F,1.32 ± 0.09,1.36 ± 0.09,1.39 ± 0.09,1.41 ± 0.09,1.44 ± 0.09,1.46 ± 0.1,1.26 ± 0.08,1.29 ± 0.08
COC(C)(C)C [2-methoxy-2-methylpropane] + CCCCCCOCn1cc[n+](COCCCCCC)c1.O=S(=O)([N-]S(=O)(=O)C(F)(F)F)C(F)(F)F,0.801 ± 0.052,0.821 ± 0.053,0.841 ± 0.054,0.859 ± 0.055,0.877 ± 0.056,0.896 ± 0.057,0.759 ± 0.05,0.78 ± 0.051
CC(C)=O [acetone] + CCCCCCOCn1cc[n+](C)c1.O=S(=O)([N-]S(=O)(=O)C(F)(F)F)C(F)(F)F,0.315 ± 0.031,0.322 ± 0.031,0.328 ± 0.032,0.336 ± 0.032,0.342 ± 0.032,0.348 ± 0.032,0.3 ± 0.031,0.308 ± 0.031
CC(C)=O [acetone] + CCCCCCOCn1cc[n+](COCCCCCC)c1.O=S(=O)([N-]S(=O)(=O)C(F)(F)F)C(F)(F)F,0.272 ± 0.03,0.277 ± 0.03,0.281 ± 0.03,0.286 ± 0.031,0.29 ± 0.031,0.294 ± 0.031,0.262 ± 0.03,0.267 ± 0.03
c1ccccc1 [benzene] + CCCCCCOCn1cc[n+](C)c1.O=S(=O)([N-]S(=O)(=O)C(F)(F)F)C(F)(F)F,0.812 ± 0.053,0.816 ± 0.053,0.82 ± 0.053,0.824 ± 0.053,0.827 ± 0.053,0.832 ± 0.054,0.802 ± 0.052,0.807 ± 0.052
c1ccccc1 [benzene] + CCCCCCOCn1cc[n+](COCCCCCC)c1.O=S(=O)([N-]S(=O)(=O)C(F)(F)F)C(F)(F)F,0.607 ± 0.042,0.607 ± 0.042,0.606 ± 0.042,0.606 ± 0.042,0.606 ± 0.042,0.606 ± 0.042,0.608 ± 0.043,0.608 ± 0.043
CCCCO [butan-1-ol] + CCCCCCOCn1cc[n+](C)c1.O=S(=O)([N-]S(=O)(=O)C(F)(F)F)C(F)(F)F,1.74 ± 0.12,1.58 ± 0.1,1.45 ± 0.1,1.34 ± 0.09,1.24 ± 0.08,1.15 ± 0.07,,
CCCCO [butan-1-ol] + CCCCCCOCn1cc[n+](COCCCCCC)c1.O=S(=O)([N-]S(=O)(=O)C(F)(F)F)C(F)(F)F,1.19 ± 0.08,1.1 ± 0.07,1.01 ± 0.064,0.943 ± 0.059,0.877 ± 0.056,0.82 ± 0.053,,
